Literature values as cited in publication PMC11359394 (Pharmaceutics, 2024).

Legend:
[1] = tested on: CYP2C8 and CYP3A4 isoenzymes
[2] = design: method as in US FDA GRAS Notices; settings: rats, dietary consumption; ref US FDA GRAS Notices

fraction metabolized in the liver by CYP P450 [1] | solubility increase by exploiting the polymorphs [fold] | Compound | dietary dose with no adverse effects [2]
Approximately 90% | 60 | CC(=O)O[C@H]1C(=O)[C@@]2(C)[C@H]([C@H](OC(=O)c3ccccc3)[C@]3(O)C[C@H](OC(=O)[C@H](O)[C@@H](NC(=O)c4ccccc4)c4ccccc4)C(C)=C1C3(C)C)[C@]1(OC(C)=O)CO[C@@H]1C[C@@H]2O [Paclitaxel] | 
 |  | C=C1C[C@@]23CC[C@H]4[C@@](C)(CCC[C@@]4(C)C(=O)O[C@@H]4O[C@H](CO)[C@@H](O)[C@H](O)[C@H]4O)[C@@H]2CC[C@]1(O[C@@H]1O[C@H](CO)[C@@H](O)[C@H](O)[C@H]1O)C3 [RUB, Rubusoside] | up to 2 g/kg
